Assay results: patent publication US10717716B2, “1,3,4-oxadiazole derivative compounds as histone deacetylase 6 inhibitor, and the pharmaceutical composition comprising the same” (Chong Kun Dang Pharmaceutical Corp., priority 2015, dated 2020)

Target: T1, human recombinant HDAC6 (Homo sapiens, UniProt Q9UBN7)
T1 construct: purchased Calbiochem 382180
T1 sequence (Q9UBN7 1-1215): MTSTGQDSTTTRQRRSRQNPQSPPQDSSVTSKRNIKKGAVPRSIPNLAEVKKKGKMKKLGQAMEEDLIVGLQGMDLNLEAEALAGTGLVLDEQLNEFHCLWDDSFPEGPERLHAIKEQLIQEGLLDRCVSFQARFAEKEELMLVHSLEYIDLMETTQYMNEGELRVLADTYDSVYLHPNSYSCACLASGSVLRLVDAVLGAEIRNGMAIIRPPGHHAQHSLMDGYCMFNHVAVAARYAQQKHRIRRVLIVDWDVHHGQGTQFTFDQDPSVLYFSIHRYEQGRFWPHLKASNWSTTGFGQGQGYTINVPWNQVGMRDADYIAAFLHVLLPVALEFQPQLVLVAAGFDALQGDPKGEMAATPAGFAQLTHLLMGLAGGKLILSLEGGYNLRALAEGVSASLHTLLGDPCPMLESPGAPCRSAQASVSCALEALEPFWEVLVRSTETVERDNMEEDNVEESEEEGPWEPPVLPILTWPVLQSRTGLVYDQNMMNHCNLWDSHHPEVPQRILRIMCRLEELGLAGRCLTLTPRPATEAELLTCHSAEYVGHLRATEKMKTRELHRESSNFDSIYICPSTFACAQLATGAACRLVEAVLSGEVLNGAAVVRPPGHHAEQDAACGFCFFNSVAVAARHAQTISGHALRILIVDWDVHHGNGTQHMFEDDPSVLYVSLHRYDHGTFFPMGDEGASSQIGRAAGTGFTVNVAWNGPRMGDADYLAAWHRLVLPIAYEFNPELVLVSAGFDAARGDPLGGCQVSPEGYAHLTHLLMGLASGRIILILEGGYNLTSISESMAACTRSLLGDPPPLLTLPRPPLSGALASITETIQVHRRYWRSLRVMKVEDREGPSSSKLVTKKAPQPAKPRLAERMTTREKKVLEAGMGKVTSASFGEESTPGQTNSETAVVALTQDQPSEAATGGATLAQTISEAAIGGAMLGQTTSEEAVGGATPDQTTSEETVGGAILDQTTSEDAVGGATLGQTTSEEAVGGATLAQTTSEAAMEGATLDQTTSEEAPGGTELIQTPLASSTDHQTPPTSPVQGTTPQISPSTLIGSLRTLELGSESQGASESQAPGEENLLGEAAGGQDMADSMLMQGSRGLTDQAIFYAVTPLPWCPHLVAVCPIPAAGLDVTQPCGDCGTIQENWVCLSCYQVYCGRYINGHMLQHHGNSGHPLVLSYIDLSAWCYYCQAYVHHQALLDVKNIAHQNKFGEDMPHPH
Assay: HDAC6 enzyme activity inhibition assay (HDAC Fluorimetric Drug Discovery Kit)
Format: biochemical
Conditions: for HDAC6 selectivity (fold): HDAC6 over HDAC1; for IC50: human recombinant HDAC6, same protocol as HDAC1, read-out: HDAC6
Outline: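 Fluorimetric deacetylase assay: 5-fold serial compound dilutions, 0.3 μg recombinant human enzyme (HDAC1 or HDAC6, same protocol), 10 μM Fluor de Lys-SIRT1 substrate, 60 min at 30 °C. Signal developed 30 min, measured at 360/460 nm; IC50 values derived.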

Row | HDAC6 selectivity (fold) | IC50 | Compound
1 | 625 fold | 16 nM | CN1CCN(C(=O)N(Cc2ccc(-c3nnc(C(F)F)o3)cc2F)c2ccc(F)c(Cl)c2)CC1 [Compound 21565, N-(3-chloro-4-fluorophenyl)-N-(4-(5-(difluoromethyl)-1,3,4-oxadiazol-2-yl)-2-fluorobenzyl)-4-methylpiperazine-1-carboxamide]
2 | 204 fold | 49 nM | CCN1CCN(C(=O)N(Cc2ccc(-c3nnc(C(F)F)o3)cc2F)c2ccc(Cl)cc2)CC1 [Compound 21881, N-(4-Chlorophenyl)-N-(4-(5-(difluoromethyl)-1,3,4-oxadiazol-2-yl)-2-fluorobenzyl)-4-ethylpiperazine-1-carboxamide]
3 | 127 fold | 79 nM | O=C(N1CCN(CCO)CC1)N(Cc1ccc(-c2nnc(C(F)(F)F)o2)cc1)c1ccccc1 [Compound 21384, 4-(2-Hydroxyethyl)-N-phenyl-N-(4-(5-(trifluoromethyl)-1,3,4-oxadiazol-2-yl)benzyl)piperazine-1-carboxamide]
4 | 303 fold | 33 nM | CCN1CCN(C(=O)N(Cc2ccc(-c3nnc(C(F)F)o3)cc2F)c2cccc(F)c2)CC1 [Compound 21884, N-(4-(5-(Difluoromethyl)-1,3,4-oxadiazol-2-yl)-2-fluorobenzyl)-4-ethyl-N-(3-fluorophenyl)piperazine-1-carboxamide]
5 | 73 fold | 138 nM | O=C(N1CCS(=O)(=O)CC1)N(Cc1ccc(-c2nnc(C(F)F)o2)cc1F)c1cccs1 [Compound 22020, N-(4-(5-(Difluoromethyl)-1,3,4-oxadiazol-2-yl)-2-fluorobenzyl)-N-(thiophen-2-yl)thiomorpholine-4-carboxamide 1,1-dioxide]
6 | 5 fold | 2080 nM | O=C(N1CCOCC1)N(Cc1ccc(-c2nnc(C(F)(F)F)o2)cc1Cl)c1ccccc1 [Compound 21429, N-(2-chloro-4-(5-(trifluoromethyl)-1,3,4-oxadiazol-2-yl)benzyl)-N-phenylmorpholine-4-carboxamide]
7 | 91 fold | 110 nM | CN1CCN(C(=O)N(Cc2ccc(-c3nnc(C(F)(F)F)o3)cc2)c2ccccc2)CC1 [Compound 21285, 4-methyl-N-phenyl-N-(4-(5-(trifluoromethyl)-1,3,4-oxadiazol-2-yl)benzyl)piperazine-1-carboxamide]
8 | 153 fold | 66 nM | O=C(NCCN1CCN(CCCO)CC1)N(Cc1ccc(-c2nnc(C(F)F)o2)cc1F)c1ccccc1 [Compound 21998, 1-(4-(5-(Difluoromethyl)-1,3,4-oxadiazol-2-yl)-2-fluorobenzyl)-3-(2-(4-(3-hydroxypropyl)piperazin-1-yl)ethyl)-1-phenylurea]
9 | 769 fold | 13 nM | O=C(N1CCS(=O)(=O)CC1)N(Cc1ccc(-c2nnc(C(F)F)o2)cc1F)c1ccc(F)c(Cl)c1 [Compound 21531, N-(3-chloro-4-fluorophenyl)-N-(4-(5-(difluoromethyl)-1,3,4-oxadiazol-2-yl)-2-fluorobenzyl)thiomorpholine-4-carboxamide 1,1-dioxide]
10 | 294 fold | 34 nM | O=C(N1CCS(=O)(=O)CC1)N(Cc1ccc(-c2nnc(C(F)F)o2)cc1F)c1ccc2c(c1)CCO2 [Compound 21544, N-(4-(5-(difluoromethyl)-1,3,4-oxadiazol-2-yl)-2-fluorobenzyl)-N-(2,3-dihydrobenzofuran-5-yl)thiomorpholine-4-carboxamide 1,1-dioxide]
11 | 2 fold | 4530 nM | O=C(N1CCOCC1)N(Cc1ccc(-c2nnc(C(F)(F)F)o2)cc1)Cc1cccnc1 [Compound 21463, N-(pyridin-3-ylmethyl)-N-(4-(5-(trifluoromethyl)-1,3,4-oxadiazol-2-yl)benzyl)morpholine-4-carboxamide]
12 | 207 fold | 48 nM | O=C(NCCN1CCCOCC1)N(Cc1ccc(-c2nnc(C(F)F)o2)cc1F)c1ccccc1 [Compound 21986, 3-(2-(1,4-Oxazepan-4-yl)ethyl)-1-(4-(5-(difluoromethyl)-1,3,4-oxadiazol-2-yl)-2-fluorobenzyl)-1-phenylurea]
13 | 28 fold | 354 nM | O=C(N1CCOCC1)N(Cc1ccc(-c2nnc(C(F)(F)F)o2)cc1)c1cccc(C(F)(F)F)c1 [Compound 21405, N-(4-(5-(trifluoromethyl)-1,3,4-oxadiazol-2-yl)benzyl)-N-(3-(trifluoromethyl)phenyl)morpholine-4-carboxamide]
14 | 37 fold | 268 nM | O=C(N1CCS(=O)(=O)CC1)N(Cc1ccc(-c2nnc(C(F)F)o2)cc1F)c1ccc2c(c1)CCC2 [Compound 21797, N-(4-(5-(Difluoromethyl)-1,3,4-oxadiazol-2-yl)-2-fluorobenzyl)-N-(2,3-dihydro-1H-inden-5-yl)thiomorpholine-4-carboxamide 1,1-dioxide]
15 | 172 fold | 58 nM | COc1cccc(N(Cc2ccc(-c3nnc(C(F)(F)F)o3)cc2F)C(=O)N2CCS(=O)(=O)CC2)c1 [Compound 21481, N-(2-fluoro-4-(5-(trifluoromethyl)-1,3,4-oxadiazol-2-yl)benzyl)-N-(3-methoxyphenyl)thiomorpholine-4-carboxamide 1,1-dioxide]
16 | 137 fold | 73 nM | COc1ccc(N(Cc2ccc(-c3nnc(C(F)(F)F)o3)cc2F)C(=O)N2CCS(=O)(=O)CC2)cc1 [Compound 21477, N-(2-fluoro-4-(5-(trifluoromethyl)-1,3,4-oxadiazol-2-yl)benzyl)-N-(4-methoxyphenyl)thiomorpholine-4-carboxamide 1,1-dioxide]
17 | 164 fold | 61 nM | CN1CCN(C(=O)N(Cc2ccc(-c3nnc(C(F)F)o3)cc2F)c2ccc(-c3ccccc3)cc2)CC1 [Compound 21542, N-([1,1′-biphenyl]-4-yl)-N-(4-(5-(difluoromethyl)-1,3,4-oxadiazol-2-yl)-2-fluorobenzyl)-4-methylpiperazine-1-carboxamide]
18 | 526 fold | 19 nM | O=C(N1CC2(COC2)C1)N(Cc1ccc(-c2nnc(C(F)F)o2)cn1)c1ccccc1 [Compound 21566, N-((5-(5-(difluoromethyl)-1,3,4-oxadiazol-2-yl)pyridin-2-yl)methyl)-N-phenyl-2-oxa-6-azaspiro[3.3]heptane-6-carboxamide]
19 | 105 fold | 95 nM | O=C(NCCN1CCN(CCc2ccncc2)CC1)N(Cc1ccc(-c2nnc(C(F)F)o2)cc1F)c1ccccc1 [Compound 22015, 1-(4-(5-(Difluoromethyl)-1,3,4-oxadiazol-2-yl)-2-fluorobenzyl)-1-phenyl-3-(2-(4-(2-(pyridin-4-yl)ethyl)piperazin-1-yl)ethyl)urea]
20 | 105 fold | 95 nM | O=C(N1CCOCC1)N(Cc1ccc(-c2nnc(C(F)(F)F)o2)cn1)c1ccccc1 [Compound 21336, N-phenyl-N-((5-(5-(trifluoromethyl)-1,3,4-oxadiazol-2-yl)pyridin-2-yl)methyl)morpholine-4-carboxamide]
21 | 60 fold | 167 nM | O=C(NCCN1CCCC1)N(Cc1ccc(-c2nnc(C(F)F)o2)cc1F)c1ccccc1 [Compound 21956, 1-(4-(5-(Difluoromethyl)-1,3,4-oxadiazol-2-yl)-2-fluorobenzyl)-1-phenyl-3-(2-(pyrrolidin-1-yl)ethyl)urea]
22 | 270 fold | 37 nM | COc1ccc(N(Cc2ccc(-c3nnc(C(F)F)o3)cc2F)C(=O)N2CCS(=O)(=O)CC2)cc1 [Compound 21478, N-(4-(5-(difluoromethyl)-1,3,4-oxadiazol-2-yl)-2-fluorobenzyl)-N-(4-methoxyphenyl)thiomorpholine-4-carboxamide 1,1-dioxide]
23 | 115 fold | 87 nM | O=C(N1CCOCC1)N(Cc1ccc(-c2nnc(C(F)(F)F)o2)cc1)c1ccc(F)c(Cl)c1 [Compound 21594, N-(3-chloro-4-fluorophenyl)-N-(4-(5-(trifluoromethyl)-1,3,4-oxadiazol-2-yl)benzyl)morpholine-4-carboxamide]
